The record followed here is US7700593B2, “Imidazo- and triazolo-pyridine compounds and methods of use thereof” (Amgen Inc., priority 2006, dated 2010).

Each structure is given as a SMILES string. Like-named read-outs stand apart in the source and are kept apart here. Where only a bound is given, the exact number is not on record here.

One experiment deals with THP1 cells. The experiment can be described thus: Lipopolysaccharide-activated THP1 cell TNF production assay. The note with it: LPS-induced TNF-α production in THP1 cells. The class given is cell-based, human. The procedure, abridged:
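THP1 cells at 1E6/mL were stimulated with LPS (1 μg/mL prepared stock) alongside 3-fold serially diluted compound for 3 h at 37 °C. Secreted TNF-α was quantified by electrochemiluminescence sandwich immunoassay. Percent of DMSO control was fitted to a 4-parameter logistic equation.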

The target in a further experiment is p38α (Homo sapiens, UniProt Q16539). Nature of the experiment: p38 in-vitro HTRF enzyme assay. The experiment is classed as biochemical. The note with it: IC50 value ranges. In outline: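 Activated recombinant human p38α with ATP and 100 nM GST-ATF2-Avitag, 1 h at RT in Tris pH 7.5/MgCl2 buffer; compound 10-point 3-fold series from about 1 μM final. HTRF 665/620 nm ratio; IC50 from 4-parameter fit, Ki via Cheng-Prusoff with experimental ATP Km.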
On the technique in general: TR-FRET usually uses a lanthanide donor and a delayed reading to cut background.

A further experiment deals with monocytes. The experiment can be described thus: Lipopolysaccharide-activated monocyte TNF production assay (LPS induced TNF release). The experiment is classed as cell-based, human. The note with it: LPS induced TNF release from monocytes, read-out: LPS induced TNFa. In outline:
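Adherent monocytes from human PBMCs were pretreated with compound 60 min, then stimulated with E. coli LPS (30 ng/mL stock added) for 4 h at 37 °C. Supernatant TNF-α measured by sandwich ELISA; concentration giving 50% TNF reduction derived by polynomial fit.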

Chain of p38α (Q16539 whole entry): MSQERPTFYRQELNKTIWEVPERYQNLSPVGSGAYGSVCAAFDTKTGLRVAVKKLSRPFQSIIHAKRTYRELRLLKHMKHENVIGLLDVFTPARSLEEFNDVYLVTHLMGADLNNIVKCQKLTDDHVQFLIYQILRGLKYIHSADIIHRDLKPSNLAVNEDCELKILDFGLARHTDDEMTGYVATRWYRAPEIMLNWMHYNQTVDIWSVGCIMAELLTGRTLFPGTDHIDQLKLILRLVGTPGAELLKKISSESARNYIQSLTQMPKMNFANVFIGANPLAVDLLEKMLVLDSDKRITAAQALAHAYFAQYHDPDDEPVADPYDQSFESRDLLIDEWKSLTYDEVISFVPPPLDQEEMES

With `Cc1ccc(C(=O)NC2CC2)cc1-c1ccn2c(N3CCCC3)nnc2c1` [Example 96, N-cyclopropyl-4-methyl-3-(3-(1-pyrrolidinyl)[1,2,4]triazolo[4,3-a]pyridin-7-yl)benzamide], the IC50 in the experiment on THP1 cells (Homo sapiens, THP-1) is 25 to 100 nM; against p38α, under 25 nM; with monocytes (Homo sapiens, Monocyte), 250 to 1000 nM.

As for `Cc1ccc(C(=O)NC2CC2)cc1-c1ccn2c(C3CCOCC3)nnc2c1` [Example 97, N-cyclopropyl-4-methyl-3-(3-(tetrahydro-2H-pyran-4-yl)[1,2,4]triazolo[4,3-a]pyridin-7-yl)benzamide], the IC50 was 25 to 100 nM in the experiment on THP1 cells (Homo sapiens, THP-1); under 25 nM against p38α; 100 to 250 nM with monocytes (Homo sapiens, Monocyte).

Regarding `Cc1ccc(C(=O)NC2CC2)cc1-c1ccn2c(C34CC5CC(CC(C5)C3)C4)nnc2c1` [Example 98, N-cyclopropyl-4-methyl-3-(3-((3s,5s,7s)-tricyclo[3.3.1.1~3,7~]dec-1-yl)[1,2,4]triazolo[4,3-a]pyridin-7-yl)benzamide], the IC50 was 25 to 100 nM in the experiment on THP1 cells (read-out: THP-1 cell assay), under 25 nM against p38α and 100 to 250 nM in the experiment on monocytes.

With `Cc1ccc(C(=O)NC2CC2)cc1-c1ccn2c(N3CCCCC3)nnc2c1` [Example 99, N-cyclopropyl-4-methyl-3-(3-(1-piperidinyl)[1,2,4]triazolo[4,3-a]pyridin-7-yl)benzamide], the IC50 in the experiment on THP1 cells (Homo sapiens, THP-1) is 25 to 100 nM; on p38α it was under 25 nM; in the experiment with monocytes (Homo sapiens, Monocyte), 250 to 1000 nM.

`Cc1ccc(C(=O)NC2CC2)cc1-c1ccn2c(N3CCOCC3)nnc2c1` [Example 101, N-cyclopropyl-4-methyl-3-(3-(4-morpholinyl)[1,2,4]triazolo[4,3-a]pyridin-7-yl)benzamide]: the IC50 in the experiment with THP1 cells (Homo sapiens, THP-1) is 100 to 250 nM; against p38α, 25 to 100 nM; in the experiment on monocytes (Homo sapiens, Monocyte), 100 to 250 nM.

For `Cc1ccc(C(=O)NC2CC2)cc1-c1ccn2c(C(F)(F)F)nnc2c1` [Example 102, N-cyclopropyl-4-methyl-3-(3-(trifluoromethyl)[1,2,4]triazolo[4,3-a]pyridin-7-yl)benzamide], the IC50 in the experiment with THP1 cells (Homo sapiens, THP-1) lay within 250 to 1000 nM; against p38α, 100 to 250 nM; with monocytes (Homo sapiens, Monocyte), 250 to 1000 nM.

In the case of `CCc1ccccc1-c1nnc2cc(-c3cc(C(=O)NC4CC4)ccc3C)ccn12` [Example 103, N-cyclopropyl-3-(3-(2-ethylphenyl)[1,2,4]triazolo[4,3-a]pyridin-7-yl)-4-methylbenzamide], the IC50 with THP1 cells (Homo sapiens, THP-1) is 25 to 100 nM; on p38α it was under 25 nM; in the experiment with monocytes (Homo sapiens, Monocyte), 100 to 250 nM.

Consider `Cc1ccc(C(=O)NC2CC2)cc1-c1ccn2c(-c3ccccc3C(F)(F)F)nnc2c1` [Example 104, N-cyclopropyl-4-methyl-3-(3-(2-(trifluoromethyl)phenyl)[1,2,4]triazolo[4,3-a]pyridin-7-yl)benzamide], for which the IC50 in the experiment on THP1 cells (Homo sapiens, THP-1) is 25 to 100 nM; on p38α, under 25 nM; in the experiment with monocytes (Homo sapiens, Monocyte), 100 to 250 nM.

Regarding `Cc1ccc(C(=O)NC2CC2)cc1-c1ccn2c(C(C)(C)C)nnc2c1` [Example 105, N-cyclopropyl-3-(3-(1,1-dimethylethyl)[1,2,4]triazolo[4,3-a]pyridin-7-yl)-4-methylbenzamide], the IC50 with THP1 cells (Homo sapiens, THP-1) was 25 to 100 nM; against p38α, under 25 nM; in the experiment with monocytes (Homo sapiens, Monocyte), 25 to 100 nM.

Consider `Cc1ccc(C(=O)Nc2ccon2)cc1-c1ccn2c(-c3c(F)cccc3F)nnc2c1` [Example 106, 3-(3-(2,6-difluorophenyl)[1,2,4]triazolo[4,3-a]pyridin-7-yl)-N-3-isoxazolyl-4-methylbenzamide], for which the IC50 is under 25 nM with THP1 cells (Homo sapiens, THP-1); under 25 nM against p38α; under 25 nM in the experiment on monocytes (Homo sapiens, Monocyte).
